Data published in US20250230147A1, “LACTAMS AS CBL-B INHIBITORS” (Genentech, Inc., priority 2021, published 2025).
Where a name gives a salt, the structure may show the parent alone.

Tests used:
c-Cbl = c-Cbl (Homo sapiens (Human), UniProt P22681); assay: C-Cbl LCK Ub TR-FRET assay (c-cbl Lck HTRF); assay type: biochemical; conditions: for (fold-selectivity): C-cbl Lck HTRF IC50 relative to Cbl-b Lck HTRF IC50
Procedure: 6 μL of detection mixture was added to all wells and briefly centrifuged before incubating for 20 min at room temperature. […] IC50 was generated using no LCK as the low control and DMSO as the high control.

Cbl-b = Cbl-b (Homo sapiens (Human), UniProt Q13191); assay: Cbl-b LCK Ub TR-FRET assay (Cbl-b Lck HTRF); assay type: biochemical
Procedure: Compounds were 3-fold serially diluted in DMSO in a 384-well polypropylene plate (#P-05525-BC; Labcyte) to generate a source plate with 10 concentrations of each compound, top concentration=2 mM. 80 nL of DMSO or compounds were transferred to each well of a black 384-well ProxiPlate (#6008260; PerkinElmer) using a Labcyte Echo. 1×assay buffer (50 mM HEPES pH7.0, 100 mM NaCl, 0.01% BSA, 0.01% Triton-X100, 1 mM DTT), 2×enzyme solution (16 nM Biotin-Cbl-b or 12 nM Biotin-c-Cbl in 1× assay buffer), 2×kinase mixture (120 nM His-LCK, 1 mM ATP, 10 mM MgCl2 in assay buffer) and 2.33×detection mixture (4.66×solution 1: 163 nM Anti-HA-D2 antibody (#610HADAB; PerkinElmer), 27.96 nM Streptavidin-EU (#AD0062; PerkinElmer), 1.398 mM EDTA in 1×assay buffer+4.66×solution 2: 2.796 μM UBE2D2/Methylated-HA-Ubiquitin thioester adduct (BostonBiochem) in 1×assay buffer) were prepared. 4 μL of 2× enzyme solution was added to each well containing compound, briefly centrifuged to mix, and incubated for 60 min at room temperature. 4 μL of 2× kinase mixture was added, briefly centrifuged to mix, and incubated for 90 min. at room temperature. 6 μL of detection mixture was added to all wells and briefly centrifuged before incubating for 20 min at room temperature. Plates were read for TR-FRET using an Envision at excitation 340 nm, emission at 615 and 665 nm, 4 flashes per well. IC50 was generated using no LCK as the low control and DMSO as the high control.
Cbl-b Lck HTRF data in Table 7 is measured according to Example 76 herein; C-cbl Lck HTRF data is measured according to Example 76 herein.

Sequence of c-Cbl (P22681 47-435): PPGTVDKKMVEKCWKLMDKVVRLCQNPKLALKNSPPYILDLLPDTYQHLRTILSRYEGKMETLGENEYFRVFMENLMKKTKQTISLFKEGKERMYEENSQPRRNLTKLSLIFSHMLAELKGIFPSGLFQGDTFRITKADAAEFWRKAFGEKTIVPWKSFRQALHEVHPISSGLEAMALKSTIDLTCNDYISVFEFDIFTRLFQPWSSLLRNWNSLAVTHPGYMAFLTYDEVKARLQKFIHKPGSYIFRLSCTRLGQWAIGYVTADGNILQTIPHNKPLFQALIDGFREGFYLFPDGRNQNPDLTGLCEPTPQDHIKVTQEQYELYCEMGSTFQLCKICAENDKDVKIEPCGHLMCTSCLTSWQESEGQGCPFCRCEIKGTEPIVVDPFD
Sequence of Cbl-b (Q13191 40-426): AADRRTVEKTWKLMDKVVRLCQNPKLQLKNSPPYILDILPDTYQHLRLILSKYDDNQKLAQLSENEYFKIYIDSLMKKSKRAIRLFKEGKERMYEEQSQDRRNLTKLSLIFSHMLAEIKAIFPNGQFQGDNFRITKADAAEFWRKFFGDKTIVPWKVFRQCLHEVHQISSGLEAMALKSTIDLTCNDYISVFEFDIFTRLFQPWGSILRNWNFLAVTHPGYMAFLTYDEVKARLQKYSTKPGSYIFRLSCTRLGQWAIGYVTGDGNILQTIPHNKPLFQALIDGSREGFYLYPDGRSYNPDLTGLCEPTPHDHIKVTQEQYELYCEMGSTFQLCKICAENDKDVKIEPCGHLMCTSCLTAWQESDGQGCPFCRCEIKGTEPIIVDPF

SMILES | IC50 (c-Cbl) [nM] | (fold-selectivity) (c-Cbl) | IC50 (Cbl-b) [nM]
Cn1cnnc1CC1(c2cccc(N3Cc4c(cc(CNC(C)(C)CF)cc4C(F)(F)F)C3=O)c2)CC(F)(F)C1 [Compound 372, 2-(3-(3,3-difluoro-1-((4-methyl-4H-1,2,4-triazol-3-yl)methyl)cyclobutyl)phenyl)-6-(((1-fluoro-2-methylpropan-2-yl)amino)methyl)-4-(trifluoromethyl)isoindolin-1-one] | 34 | (1.2x) | 28
CC1CN(Cc2cc3c(c(C(F)(F)F)c2)CN(c2cccc(C4([C@H](F)c5nncn5C)COC4)c2)C3=O)CCCO1 (stereo partly drawn) [Compound 120, 2-(3-(3-((S)-fluoro(4-methyl-4H-1,2,4-triazol-3-yl)methyl)oxetan-3-yl)phenyl)-6-((2-methyl-1,4-oxazepan-4-yl)methyl)-4-(trifluoromethyl)isoindolin-1-one] | 44 | 1.2x | 36
Cn1cnnc1[C@H](F)C1(c2cccc(N3Cc4c(cc(CN5CC6(CCC6)C5)cc4C(F)(F)F)C3=O)c2)COC1 [Compound 165, (R)-6-(2-azaspiro[3.3]heptan-2-ylmethyl)-2-(3-(3-(fluoro(4-methyl-4H-1,2,4-triazol-3-yl)methyl)oxetan-3-yl)phenyl)-4-(trifluoromethyl)isoindolin-1-one] | 73 | 2.1x | 35
Cn1cnnc1[C@@H](F)C1(c2cccc(N3Cc4c(cc(CN5CCOCC5)cc4C(F)(F)F)C3=O)c2)COC1 [Compound 89, (S)-2-(3-(3-(fluoro(4-methyl-4H-1,2,4-triazol-3-yl)methyl)oxetan-3-yl)phenyl)-6-(morpholinomethyl)-4-(trifluoromethyl)isoindolin-1-one] | 720 | 2.3x | 310
Cn1cnnc1CC1(c2cccc(N3Cc4c(cc(OCc5c[nH]cn5)cc4C(F)(F)F)C3=O)c2)CC(F)(F)C1 [Compound 422, 6-((1H-imidazol-4-yl)methoxy)-2-(3-(3,3-difluoro-1-((4-methyl-4H-1,2,4-triazol-3-yl)methyl)cyclobutyl)phenyl)-4-(trifluoromethyl)isoindolin-1-one] | 17 | (1.1x) | 16
Cc1cn(CC2(c3cccc(N4Cc5c(cc(CN6CCN(C)C[C@@H]6C(C)C)cc5C(F)(F)F)C4=O)c3)COC2)nn1 [Compound 257, (S)-6-((2-isopropyl-4-methylpiperazin-1-yl)methyl)-2-(3-(3-((4-methyl-1H-1,2,3-triazol-1-yl)methyl)oxetan-3-yl)phenyl)-4-(trifluoromethyl)isoindolin-1-one] | 20000 | (1.6x) | 13000
Cn1cnnc1C(F)(F)C1(c2cccc(N3Cc4c(cccc4C(F)(F)F)C3=O)c2)CC1 [Compound 49, 2-(3-(1-(difluoro(4-methyl-4H-1,2,4-triazol-3-yl)methyl)-cyclopropyl)phenyl)-4-(trifluoromethyl)isoindolin-1-one] | 2800 | 2.0x | 1400
CCNc1cc(C2(Cc3nncn3C)COC2)cc(N2Cc3c(cc(CNC4(C)CCC4)cc3C(F)(F)F)C2=O)n1 [Compound 290, 2-(6-(ethylamino)-4-(3-((4-methyl-4H-1,2,4-triazol-3-yl)methyl)oxetan-3-yl)pyridin-2-yl)-6-(((1-methylcyclobutyl)amino)methyl)-4-(trifluoromethyl)isoindolin-1-one] | 5.4 | (0.54x) | 10
Cn1cnnc1[C@@H](F)C1(c2cccc(N3Cc4c(cc(CN5CCC5)cc4C(F)(F)F)C3=O)c2)CC(F)(F)C1 [Compound 398, (S)-6-(azetidin-1-ylmethyl)-2-(3-(3,3-difluoro-1-(fluoro(4-methyl-4H-1,2,4-triazol-3-yl)methyl)cyclobutyl)phenyl)-4-(trifluoromethyl)isoindolin-1-one] | 180 | (1.3x) | 140
Cn1cnnc1[C@H](F)C1(c2cccc(N3Cc4c(cc(CN5CC6(C5)CS(=O)(=O)C6)cc4C(F)(F)F)C3=O)c2)COC1 [Compound 181, (R)-6-((2,2-dioxido-2-thia-6-azaspiro[3.3]heptan-6-yl)methyl)-2-(3-(3-(fluoro(4-methyl-4H-1,2,4-triazol-3-yl)methyl)oxetan-3-yl)phenyl)-4-(trifluoromethyl)isoindolin-1-one] | 110 | 2.1x | 52
CC(C)Cc1cc(C2(Cc3nncn3C)CCC2)cc(N2Cc3c(cc(CNC4(C)CCC4)cc3C(F)(F)F)C2=O)n1 [Compound 342, 2-(6-isobutyl-4-(1-((4-methyl-4H-1,2,4-triazol-3-yl)methyl)cyclobutyl)pyridin-2-yl)-6-(((1-methylcyclobutyl)amino)methyl)-4-(trifluoromethyl)isoindolin-1-one formate] | 7.9 | – | 11
CC(C)[C@@H]1CN(Cc2cc3c(c(C(F)(F)F)c2)CN(c2cccc(C4([C@H](F)c5nncn5C)COC4)c2)C3=O)CCN1 [Compound 93, 2-(3-(3-((S)-fluoro(4-methyl-4H-1,2,4-triazol-3-yl)methyl)oxetan-3-yl)phenyl)-6-(((R)-3-isopropylpiperazin-1-yl)methyl)-4-(trifluoromethyl)isoindolin-1-one] | 78 | 1.1x | 68
CC(=O)Nc1cc(C2(Cc3nncn3C)CCC2)cc(N2Cc3c(cc(CN4CCN(C)C[C@@H]4C(C)C)cc3C(F)(F)F)C2=O)n1 [Compound 330, (S)-N-(6-(6-((2-isopropyl-4-methylpiperazin-1-yl)methyl)-1-oxo-4-(trifluoromethyl)isoindolin-2-yl)-4-(1-((4-methyl-4H-1,2,4-triazol-3-yl)methyl)cyclobutyl)pyridin-2-yl)acetamide] | 1200 | (1.2x) | 1000
C#Cc1cccc2c1CN(c1cccc(C3([C@@H](F)c4nncn4C)COC3)c1)C2=O [Compound 211, (R)-4-ethynyl-2-(3-(3-(fluoro(4-methyl-4H-1,2,4-triazol-3-yl)methyl)oxetan-3-yl)phenyl)isoindolin-1-one] | 1600 | 1.7x | 940
Cc1cnnn1CC1(c2cccc(N3Cc4c(cc(CN5CCN(C)C[C@@H]5C(C)C)cc4C(F)(F)F)C3=O)c2)COC1 [Compound 258, (S)-6-((2-isopropyl-4-methylpiperazin-1-yl)methyl)-2-(3-(3-((5-methyl-1H-1,2,3-triazol-1-yl)methyl)oxetan-3-yl)phenyl)-4-(trifluoromethyl)isoindolin-1-one] | 31 | (1.4x) | 22
CC[C@H]1CC[C@H](c2cc3c(c(C(F)(F)F)c2)CN(c2cccc(C4(Cc5nncn5C)CC(F)(F)C4)c2)C3=O)N1 [Compound 469, 2-(3-(3,3-difluoro-1-((4-methyl-4H-1,2,4-triazol-3-yl)methyl)cyclobutyl)phenyl)-6-((2R,5S)-5-ethylpyrrolidin-2-yl)-4-(trifluoromethyl)isoindolin-1-one] | 52 | (1.1x) | 48
Cn1cnnc1[C@@H](F)[C@](C)(F)c1cccc(N2Cc3c(cc(CN4CCC5(CC5)C4)cc3C(F)(F)F)C2=O)c1 [Compound 129, 6-(5-azaspiro[2.4]heptan-5-ylmethyl)-2-(3-((1R,2R)-1,2-difluoro-1-(4-methyl-4H-1,2,4-triazol-3-yl)propan-2-yl)phenyl)-4-(trifluoromethyl)isoindolin-1-one] | – | 3.6x | –
Cn1cnnc1[C@H](F)C1(c2cccc(N3Cc4c(Cl)cc(CNC5(C)CCC5)cc4C3=O)c2)COC1 [Compound 470, (R)-4-chloro-2-(3-(3-(fluoro(4-methyl-4H-1,2,4-triazol-3-yl)methyl)oxetan-3-yl)phenyl)-6-(((1-methylcyclobutyl)amino)methyl) isoindolin-1-one] | – | (0.70x) | –
Cn1cnnc1[C@H](F)[C@@](C)(F)c1cccc(N2Cc3c(cc(CN4CCC5(CC5)C4)cc3C(F)(F)F)C2=O)c1 [Compound 128, 6-(5-azaspiro[2.4]heptan-5-ylmethyl)-2-(3-((1S,2S)-1,2-difluoro-1-(4-methyl-4H-1,2,4-triazol-3-yl)propan-2-yl)phenyl)-4-(trifluoromethyl)isoindolin-1-one] | – | 3.4x | –
Cn1cnnc1[C@@H](F)[C@@](C)(F)c1cccc(N2Cc3c(cc(CN4CCC5(CC5)C4)cc3C(F)(F)F)C2=O)c1 [Compound 130, 6-(5-azaspiro[2.4]heptan-5-ylmethyl)-2-(3-((1R,2S)-1,2-difluoro-1-(4-methyl-4H-1,2,4-triazol-3-yl)propan-2-yl)phenyl)-4-(trifluoromethyl)isoindolin-1-one] | – | 3.3x | –
